The source of these data is ChEMBL document CHEMBL1147201, “Structural requirements of HDAC inhibitors: SAHA analogs functionalized adjacent to the hydroxamic acid” (Bioorg Med Chem Lett, 2007).

The assay addresses Histone deacetylase. Kind of assay: Inhibition of HDAC by fluorescent assay. It is filed as protein assay, Homo sapiens.

For the compound `CCCC(CCCCCC(=O)Nc1ccccc1)C(=O)NO` (configuration not stated), the IC50 was found to be 154 µM.

In turn, `CCCCC(CCCCCC(=O)Nc1ccccc1)C(=O)NO` (configuration not stated) gave a half-maximal inhibitory concentration (IC50) of 72 µM.

On to `C#CCC(CCCCCC(=O)Nc1ccccc1)C(=O)NO` (configuration not stated), for which the IC50 turned out to be 87 µM.

In turn, `CCC(CCCCCC(=O)Nc1ccccc1)C(=O)NO` (configuration not stated) registered an IC50 of 449 µM.

Compound `CC(CCCCCC(=O)Nc1ccccc1)C(=O)NO` (configuration not stated) yielded an IC50 of 134 µM.

The compound `O=C(CCCCCC(Cc1ccccc1)C(=O)NO)Nc1ccccc1` (configuration not stated) yielded an IC50 of 226 µM.

Turning to `C=CCC(CCCCCC(=O)Nc1ccccc1)C(=O)NO` (configuration not stated), the half-maximal inhibitory concentration (IC50) was found to be 144 µM.
